Results published in patent US20020143062A1, “Method to incorporate N-(4-hydroxyphenyl) retinamide in liposomes” (Board of Regents, The University of Texas System, priority 2000, published 2002).
pIC50: −log10 of the molar value. Where a name gives a salt, the structure may show the parent alone. Read-outs that look alike come from different tables or passages of the source. Starred links: 1 amine or outer side, 2 acyl side, 3 side chain; linkers in the order of their positions; H or OH if unused. Positions of bridges follow the written chain, without caps; N, C: chain ends. Non-standard residues stand in square brackets, D forms with d. Residues, ends and D or L forms follow the SMILES beside them. Chains are numbered I, II in the order given. Actinocin(9to1) = Cc1c2oc3c(C)ccc(C(=O)[*:1])c3nc-2c(C(=O)[*:2])c(N)c1=O; NMeV = CN[C@H](C(=O)O)C(C)C; Sar = CNCC(=O)O

What was measured:
ER-positive MCF-7 cells [1] = test: Growth inhibition, cell count (Table 6); type: cell-based; settings: alone or with 4HPR 1 μM as labelled, 5 days
Description: Nitric oxide (NO), an important biological second messenger, is known to induce growth inhibition and apoptosis in cells. Nitric oxide (NO) is biosynthesized by isoenzymes called nitric oxide synthases. […]

ER-positive MCF-7 cells [2] = test: Growth inhibition, cell count (Table 5); type: cell-based; settings: alone or with 4HPR 1 μM as labelled, 5 days
Description: (§1) Nitric oxide (NO), an important biological second messenger, is known to induce growth inhibition and apoptosis in cells. Nitric oxide (NO) is biosynthesized by isoenzymes called nitric oxide synthases. One such isoenzyme, inducible NOS (iNOS), is present only after cytokine induction, such as interferon-γ (IFN-γ). […] Here, the ability of liposomal 4-HPR and IFN-γ to induce NO production and growth inhibition in breast cancer positive (Table 5) and breast cancer negative (Table 6) cells is examined by nitrite assays and growth inhibition assays, as known to the skilled artisan.

ER-positive MCF-7 cells [3] = test: NO production, nitrite assay (Tables 5 and 7); type: cell-based; settings: for increase of iNOS production of NO in the presence of cyclosporin A: both ER positive and ER negative breast cancer cells (Tables 7, 8)
Description: as §1
(§2) It is also known to those skilled in the art that nitric oxide (NO) is a biologic mediator derived from the amino acid L-arginine. A family of enzymes, known as nitric oxide synthase (NOS), act upon L-arginine to oxidize one of the guanidino nitrogens to nitric oxide while citrulline is formed from the remainder of the L-arginine molecule.
(§3) Liposomal 4-HPR in combination with cyclosporin A, increased iNOS production of NO in breast cancer cells (Table 3-5). […] Furthermore, an increase in the production of NO in these cells was not indicated with other retinoids such as CD437 and ATRA.

ER-positive MCF-7 cells [4] = test: NO production, nitrite assay (Table 6); type: cell-based; settings: alone or with 4HPR 1 μM as labelled, 5 days
Description: as §1, §2

[5] = cited from earlier work
[6] = test system: ER-negative MDA-MB-231 cells; test: NO production, nitrite (Table 8); type: cell-based; settings: cyclosporin A 4 μg/ml; CD437 2 μM; ATRA 1 μM; alone or combined as labelled; 3 days
Description: as §3

MCF-7/WT = test: Cellular proliferation assay, IC50 of retinoids with/without cyclosporin A; type: cell-based
[7] = cited from earlier work; remark: listed apart in the source
[8] = cited from earlier work; remark: listed apart in the source
MCF-7/ADR = test: Cellular proliferation assay, IC50 of retinoids with/without cyclosporin A; type: cell-based
[9] = cyclosporin A 4 μg/ml, CD437 2 μM, ATRA 1 μM, alone or combined as labelled, 3 days
[10] = single oral doses of about 0.6 mg/kg to about […]
[11] = without cyclosporin A, read-out: IC50 Without CsA

IFN-γ: Interferon gamma, cytokine that induces iNOS
Cell count (ER-positive MCF-7 cells [1]; IFN-γ 25 U/ml): 51 × 10^4
Cell count (ER-positive MCF-7 cells [1]; IFN-γ 50 U/ml): 52 × 10^4
Cell count (ER-positive MCF-7 cells [2]; IFN-γ 25 U/ml): 254 × 10^4
Cell count (ER-positive MCF-7 cells [2]; IFN-γ 50 U/ml): 258 × 10^4
Nitrite (NO production) (ER-positive MCF-7 cells [3]; IFN-γ 25 U/ml, alone or with 4HPR 1 μM as labelled, 5 days): 7.1 ± 3.3 μM Nitrite /1 × 10^6 cells
Nitrite (NO production) (ER-positive MCF-7 cells [3]; IFN-γ 50 U/ml, alone or with 4HPR 1 μM as labelled, 5 days): 6.6 ± 0.5 μM Nitrite /1 × 10^6 cells
Nitrite (NO production) (ER-positive MCF-7 cells [4]; IFN-γ 25 U/ml): 28.3 ± 4.1 μM Nitrite /1 × 10^6 cells
Nitrite (NO production) (ER-positive MCF-7 cells [4]; IFN-γ 50 U/ml): 24.4 ± 0.4 μM Nitrite /1 × 10^6 cells

N[C@@H](Cc1ccc(N(CCCl)CCCl)cc1)C(=O)O [Melphalan, 4-[bis(2-chloroethyl)amino]-L-phenylalanine]
proportion of patients with a favorable response ([5]; multiple myeloma, oral administration): about one third to one half

CC1=C(/C=C/C(C)=C/C=C/C(C)=C/C(=O)O)C(C)(C)CCC1 [ATRA, all-trans-retinoic acid]
Nitrite (NO production) [6]: 7.1 μM Nitrite /1 × 10^6 cells
increase of iNOS production of NO in the presence of cyclosporin A (ER-positive MCF-7 cells [3]): not indicated
Nitrite (NO production) (ER-positive MCF-7 cells [3]; [9]): 15.1 μM Nitrite /1 × 10^6 cells
pIC50 (MCF-7/WT; Homo sapiens, MCF7, cotreatment with CsA, concentration not marked, read-out: IC50 With CsA): 6.54
pIC50 (MCF-7/WT; Homo sapiens, MCF7, without cyclosporin A, read-out: IC50 Without CsA): 6.54

CO[C@@]12[C@H](COC(N)=O)C3=C(C(=O)C(C)=C(N)C3=O)N1C[C@@H]1N[C@@H]12 [Mitomycin]
time required to reduce the serum concentration by about 50% ([7]; 30 mg bolus injection): 17 min
dose excreted unchanged in the urine ([7]; in vivo): Approximately 10%

COc1cccc2c1C(=O)c1c(O)c3c(c(O)c1C2=O)C[C@@](O)([C@H](C)O)C[C@@H]3O[C@H]1C[C@H](N)[C@H](O)[C@H](C)O1 [daunorubicinol]
half-life of active metabolite ([8]; in vivo): about 27 hours

N.N.[Cl][Pt][Cl] [Cisplatin]
oral / gastrointestinal absorption ([8]; in vivo): not absorbed orally

CC[C@]1(O)C[C@H]2CN(CCc3c([nH]c4ccccc34)[C@@](C(=O)OC)(c3cc4c(cc3OC)N(C=O)[C@H]3[C@@](O)(C(=O)OC)[C@H](OC(C)=O)[C@]5(CC)C=CCN6CC[C@]43[C@@H]65)C2)C1 [vincristine]
terminal half-life (clearance from plasma) ([8]; in vivo): about 24 hours

COc1cccc2c1C(=O)c1c(O)c3c(c(O)c1C2=O)C[C@@](O)(C(C)=O)C[C@@H]3O[C@H]1C[C@H](N)[C@H](O)[C@H](C)O1 [Daunorubicin, 5,12-Naphthacenedione, (8S-cis)-8-acetyl-10-[(3-amino-2,3,6-trideoxy-a-L-lyxo-hexanopyranosyl)oxy]-7,8,9,10-tetrahydro-6,8,11-trihydroxy-10-methoxy-, hydrochloride]
oral / gastrointestinal absorption ([8]; in vivo): Oral absorption is poor
elimination half-life ([8]; in vivo): about 19 hours
secreted into the bile ([8]; in vivo): about 40%

O=C(O)CCCc1ccc(N(CCCl)CCCl)cc1 [Chlorambucil, 4-[bis(2-chlorethyl)amino] benzenebutanoic acid]
oral / gastrointestinal absorption ([8]; in vivo): rapidly and completely absorbed
terminal half-life of the parent drug [8, 10]: about 1.5 hours
time to peak plasma chlorambucil levels [8, 10]: within one hour

Cc1c2oc3c(C)ccc(C(=O)N[C@@H]4C(=O)N[C@H](C(C)C)C(=O)N5CCC[C@H]5C(=O)N(C)CC(=O)N(C)[C@@H](C(C)C)C(=O)O[C@@H]4C)c3nc-2c(C(=O)N[C@@H]2C(=O)N[C@H](C(C)C)C(=O)N3CCC[C@H]3C(=O)N(C)CC(=O)N(C)[C@@H](C(C)C)C(=O)O[C@@H]2C)c(N)c1=O [Actinomycin D] (I: T[dV]P[Sar][NMeV] / II: T[dV]P[Sar][NMeV]; ester I:1-I:C, II:1-II:C; linker I:N-II:N via Actinocin(9to1))
dose excreted intact into the bile ([8]; in vivo): Half of the dose
dose excreted intact into the urine ([8]; in vivo): 10%
half-life ([8]; in vivo): about 36 hours
passage of the blood-brain barrier ([8]; in vivo): does not pass the blood-brain barrier

CC[C@]1(O)C[C@@H]2CN(CCc3c([nH]c4ccccc34)[C@@](C(=O)OC)(c3cc4c(cc3OC)N(C)[C@H]3[C@@](O)(C(=O)OC)[C@H](OC(C)=O)[C@]5(CC)C=CCN6CC[C@]43[C@@H]65)C2)C1 [vinblastine]
administered dose recovered in the feces after biliary excretion ([8]; in vivo): about 10%
half-life of disappearance from plasma after distribution (first) ([8]; intravenous injection): approximately 1 hours
half-life of disappearance from plasma after distribution (second) ([8]; intravenous injection): ~72000 s

O=NN(CCCl)C(=O)NC1CCCCC1 [Lomustine, 1-(2-chloro-ethyl)-3-cyclohexyl-l nitrosourea]
radioactivity excreted in the form of degradation products within 24 hours ([8]; oral radioactive lomustine, about 30 mg/m^2 to 100 mg/m^2): about half
serum half-life of the metabolites ([8]; oral radioactive lomustine): about 16 hours to about 2 days

COc1cccc2c1C(=O)c1c(O)c3c(c(O)c1C2=O)C[C@@](O)(C(=O)CO)C[C@@H]3O[C@H]1C[C@H](N)[C@H](O)[C@H](C)O1 [Doxorubicin, 5,12-Naphthacenedione, (8s-cis)-10-[(3-amino-2,3,6-trideoxy-a-L-lyxo-hexopyranosyl)oxy]-7,8,9,1 0-tetrahydro-6,8,11-trihydroxy-8-(hydroxyacetyl)-1-methoxy-hydrochloride]
oral / gastrointestinal absorption ([8]; in vivo): absorbed poorly
elimination half-life ([8]; in vivo): about 30 hours

CS(=O)(=O)OCCCCOS(C)(=O)=O [Busulfan, 1,4-butanediol dimethanesulfonate]
adults obtaining hematologic remission with regression or stabilization of organomegaly ([5]; previously untreated chronic myelogenous leukemia): Approximately 90%

O=C(O)c1ccc2cc(-c3ccc(O)c(C45CC6CC(CC(C6)C4)C5)c3)ccc2c1 [CD437]
Nitrite (NO production) [6]: 59.3 μM Nitrite /1 × 10^6 cells
increase of iNOS production of NO in the presence of cyclosporin A (ER-positive MCF-7 cells [3]): not indicated
Nitrite (NO production) (ER-positive MCF-7 cells [3]; [9]): 71.8 μM Nitrite /1 × 10^6 cells
pIC50 (MCF-7/ADR; cotreatment with CsA 2 μg/ml, read-out: IC50 With CsA): 3.71
pIC50 (MCF-7/ADR; cotreatment with CsA 4 μg/ml, read-out: IC50 With CsA): 5.92
pIC50 (MCF-7/ADR; [11]): 5.80
pIC50 (MCF-7/WT; cotreatment with CsA, concentration not marked, read-out: IC50 With CsA): 6.45
pIC50 (MCF-7/WT; [11]): 6.54
